Source: ChEMBL document CHEMBL3868595, “Plazomicin is effective in a non-human primate pneumonic plague model” (Bioorg Med Chem, 2016)

Assays:
[1] = test system: Yersinia pestis; experiment: Antibacterial activity against Yersinia pestis Colorado 92 infected in African green monkey B6873 model assessed as bacterial burden in kidney at 12.5 mg/kg, iv administered within 6 hrs post onset of sustained fever as 30 mins infusion for 5 days (reference value: 7.1 10^7CFU/g); format: functional, organism-based; details: CO92
[2] = test system: Yersinia pestis; experiment: Antibacterial activity against Yersinia pestis Colorado 92 infected in African green monkey B6783 model assessed as bacterial burden in spleen at 12.5 mg/kg, iv administered within 6 hrs post onset of sustained fever as 30 mins infusion for 5 days (reference value: 1.6 10^9CFU/g); format: functional, CO92
[3] = test system: Yersinia pestis; experiment: Antibacterial activity against Yersinia pestis Colorado 92 infected in African green monkey B6861 model assessed as bacterial burden in brain at 6.25 mg/kg, iv administered within 6 hrs post onset of sustained fever as 30 mins infusion for 5 days (reference value: 1.9 10^6CFU/g); format: functional, CO92
[4] = test system: African green monkey; experiment: Toxicity in African green monkey B6428 model infected with Yersinia pestis Colorado 92 assessed as serum alanine aminotransferase level at 25 mg/kg, iv administered within 6 hrs post onset of sustained fever as 30 mins infusion for 10 days (reference value: 83 IU/L); format: organism-based; details: chlorocebus sabaeus, in vivo
[5] = Elimination half life in African green monkey blood at 35 mg/kg administered as iv infusion twice daily for 7 consecutive days measured on day 1 by LC-MS/MS analysis; format: ADME, organism-based; details: chlorocebus aethiops, read-out: beta t1/2 (converted)
[6] = AUC (0 to 24 hrs) in African green monkey blood at 25 mg/kg administered as iv infusion twice daily for 7 consecutive days measured on day 1 by LC-MS/MS analysis; format: ADME, organism-based; design: dose 25 mg/kg, time < 24 hr, route intravenous; details: chlorocebus aethiops
[7] = test system: African green monkey; experiment: Toxicity in African green monkey 7929 model infected with Yersinia pestis Colorado 92 assessed as serum gamma glutamyl-transferase level at 25 mg/kg, iv administered within 6 hrs post onset of sustained fever as 30 mins infusion for 10 days (reference value: 44 IU/L); format: organism-based; details: chlorocebus sabaeus, in vivo
[8] = test system: African green monkey; experiment: Toxicity in African green monkey 7972 model infected with Yersinia pestis Colorado 92 assessed as blood urea nitrogen level at 25 mg/kg, iv administered within 6 hrs post onset of sustained fever as 30 mins infusion for 10 days (reference value: 13 mg/dl); format: organism-based; details: chlorocebus sabaeus, in vivo
[9] = test system: Yersinia pestis; experiment: Antibacterial activity against Yersinia pestis Colorado 92 infected in African green monkey B6127 model assessed as bacterial burden in blood at 25 mg/kg, iv administered within 6 hrs post onset of sustained fever as 30 mins infusion for 10 days (reference value: 1.2 10^7CFU/ml); format: functional, organism-based; details: CO92
[10] = test system: African green monkey; experiment: Toxicity in African green monkey B6291 model infected with Yersinia pestis Colorado 92 assessed as blood urea nitrogen level at 25 mg/kg, iv administered within 6 hrs post onset of sustained fever as 30 mins infusion for 10 days (reference value: 24 mg/dl); format: organism-based; details: chlorocebus sabaeus, in vivo
[11] = test system: African green monkey; experiment: Toxicity in African green monkey 7972 model infected with Yersinia pestis Colorado 92 assessed as serum lactate dehydrogenase level at 25 mg/kg, iv administered within 6 hrs post onset of sustained fever as 30 mins infusion for 10 days (reference value: 381 IU/L); format: organism-based; details: chlorocebus sabaeus, in vivo
[12] = test system: Yersinia pestis; experiment: Antibacterial activity against Yersinia pestis Colorado 92 infected in African green monkey B6872 model assessed as bacterial burden in liver at 25 mg/kg, iv administered within 6 hrs post onset of sustained fever as 30 mins infusion for 5 days (reference value: 5.2 10^8CFU/g); format: functional, organism-based; details: CO92
[13] = test system: Yersinia pestis; experiment: Antibacterial activity against Yersinia pestis Colorado 92 infected in African green monkey B6783 model assessed as bacterial burden in lung at 12.5 mg/kg, iv administered within 6 hrs post onset of sustained fever as 30 mins infusion for 5 days (reference value: 7.7 10^8CFU/g); format: functional, CO92
[14] = test system: African green monkey; experiment: Toxicity in African green monkey B6291 model infected with Yersinia pestis Colorado 92 assessed as serum lactate dehydrogenase level at 25 mg/kg, iv administered within 6 hrs post onset of sustained fever as 30 mins infusion for 10 days (reference value: 212 IU/L); format: organism-based; details: chlorocebus sabaeus, in vivo
[15] = test system: African green monkey; experiment: Toxicity in African green monkey B5994 model infected with Yersinia pestis Colorado 92 assessed as serum gamma glutamyl-transferase level at 25 mg/kg, iv administered within 6 hrs post onset of sustained fever as 30 mins infusion for 10 days (reference value: 35 IU/L); format: organism-based; details: chlorocebus sabaeus, in vivo
[16] = test system: Yersinia pestis; experiment: Antibacterial activity against Yersinia pestis Colorado 92 infected in African green monkey B6988 model assessed as bacterial burden in heart at 6.25 mg/kg, iv administered within 6 hrs post onset of sustained fever as 30 mins infusion for 5 days (reference value: 2.6 10^7CFU/g); format: functional, CO92
[17] = test system: Yersinia pestis; experiment: Antibacterial activity against Yersinia pestis Colorado 92 infected in African green monkey B6873 model assessed as bacterial burden in brain at 12.5 mg/kg, iv administered within 6 hrs post onset of sustained fever as 30 mins infusion for 5 days (reference value: 1.9 10^6CFU/g); format: functional, CO92
[18] = test system: Yersinia pestis; experiment: Antibacterial activity against Yersinia pestis Colorado 92 infected in African green monkey B6861 model assessed as bacterial burden in spleen at 6.25 mg/kg, iv administered within 6 hrs post onset of sustained fever as 30 mins infusion for 5 days (reference value: 1.6 10^9CFU/g); format: functional, CO92
[19] = test system: Yersinia pestis; experiment: Antibacterial activity against Yersinia pestis Colorado 92 infected in African green monkey B6469 model assessed as bacterial burden in kidney at 25 mg/kg, iv administered within 6 hrs post onset of sustained fever as 30 mins infusion for 5 days (reference value: 7.1 10^7CFU/g); format: functional, organism-based; details: CO92
[20] = test system: Yersinia pestis; experiment: Antibacterial activity against Yersinia pestis Colorado 92 infected in African green monkey B6672 model assessed as bacterial burden in lung at 12.5 mg/kg, iv administered within 6 hrs post onset of sustained fever as 30 mins infusion for 5 days (reference value: 7.7 10^8CFU/g); format: functional, CO92
[21] = test system: African green monkey; experiment: Toxicity in African green monkey B6127 model infected with Yersinia pestis Colorado 92 assessed as weight loss at 25 mg/kg, iv administered within 6 hrs post onset of sustained fever as 30 mins infusion for 10 days measured from day 7 to 14 post dose; format: organism-based; details: chlorocebus sabaeus, in vivo
[22] = Volume of distribution at steady state in African green monkey blood at 25 mg/kg administered as iv infusion twice daily for 7 consecutive days measured on day 1 by LC-MS/MS analysis; format: ADME, organism-based; details: chlorocebus aethiops, read-out: Vdss
[23] = test system: Yersinia pestis; experiment: Antibacterial activity against Yersinia pestis Colorado 92 infected in African green monkey B6988 model assessed as bacterial burden in kidney at 6.25 mg/kg, iv administered within 6 hrs post onset of sustained fever as 30 mins infusion for 5 days (reference value: 7.1 10^7CFU/g); format: functional, CO92
[24] = Toxicity in African green monkey 7653 model infected with Yersinia pestis Colorado 92 assessed as total white blood cell count at 25 mg/kg, iv administered within 6 hrs post onset of sustained fever as 30 mins infusion for 10 days (reference value: 7.5 10^3/microL); format: organism-based; details: chlorocebus aethiops, in vivo
[25] = test system: Yersinia pestis; experiment: Antibacterial activity against Yersinia pestis Colorado 92 infected in African green monkey B6415 model assessed as bacterial burden in brain at 25 mg/kg, iv administered within 6 hrs post onset of sustained fever as 30 mins infusion for 5 days (reference value: 1.9 10^6CFU/g); format: functional, CO92

CN[C@@H]1[C@@H](O)[C@@H](O[C@@H]2[C@@H](O)[C@H](O[C@H]3OC(CNCCO)=CC[C@H]3N)[C@@H](N)C[C@H]2NC(=O)[C@@H](O)CCN)OC[C@]1(C)O [PLAZOMICIN]
Activity [1]: Below limit of detection | Activity [2]: 10 CFU/g | Activity [3]: 12 CFU/g | Activity [4]: 60 IU/L | half-life [5]: 1.7 h | AUC(0-t) at 24 h [6]: 185 µg·h/mL | Activity [7]: 16 IU/L | Activity [8]: 24 mg/dL | Activity [9]: Below limit of detection | Activity [10]: 21 mg/dL | Activity [11]: 398 IU/L | Activity [12]: Below limit of detection | Activity [13]: 2.8 ×10⁹ CFU/g | Activity [14]: 259 IU/L | Activity [15]: 38 IU/L | Activity [16]: 4.5 ×10⁶ CFU/g | Activity [17]: 44 CFU/g | Activity [18]: 95 CFU/g | Activity [19]: Below limit of detection | Activity [20]: 9.2 ×10⁹ CFU/g | Activity [21]: Toxic | Vd [22]: 0.33 L/kg | Activity [23]: 23 CFU/g | Activity [24]: 5.8 ×10³ /uL | Activity [25]: 39 CFU/g
